Data reported in US20010031729A1, “Composition comprising carbohydrate and peptide material and its use as an energy supplement after or during physical exercise or as a metabolic nutrient for oral consumption” (priority 1999, published 2001).

Test system: healthy, non-obese male subjects after an overnight fast
Assay: First study: insulinotropic effect of test drinks co-ingested with carbohydrate, plasma insulin by radio-immuno-assay
Type: in vivo, human
Conditions: 1st study
Text: In studies presented below the effects of intact casein, several protein hydrolysates and protein hydrolysate in combination wit specific amino acids have been examined. The sodium casein used in this study is commercially available from DMV-International. Glucose and maltodextrin were obtained from AVEBE (the Netherlands) and crystalline amino acids from BUFA (the Netherlands). In the presented study the following commercially available protein hydrolysates from Quest-International have been used: Hyprol® 3301 (whey protein hydrolysate, average peptide chain length of 4.1), Hyprol® 4107 (wheat gluten protein hydrolysate, average peptide chain length of 12.2) and Hyprol® 7102 (pea protein hydrolysate, average peptide chain length of 6.4). The insulin responses in blood plasma was analysed by radio-immuno-assay (Insulin RIA 100 kit, Pharmacia, Sweden),
In three studies the efficiency of an amino acid and/or protein (hydrolysate) mixture in a carbohydrate containing drink with respect to their insulinotropic effect in human subjects was examined. […]
Eight healthy, non-obese male subjects (age 21±0.4, weight 73.9±2.2 kg, height 186±2 cm, BMI 21.4±0.7 kg·m^−2) after an overnight fast, were tested for 2 hours on 10 occasions in which different beverage compositions were ingested. […] The insulin response is expressed as area under the curve during the second hour. […]

Influence of addition of free glutamine on plasma glutamine concentrations: hardly influenced
Compound: NC(=O)CC[C@H](N)C(=O)O [glutamine]
Effect on the insulin response of addition to the mixture of arginine, leucine and phenylalanine (healthy men): no effect
